Measured values as given in patent publication US11970474B2, “Substituted benzodiazoles and use thereof in therapy” (THOMAS HELLEDAYS STIFTELSE FÖR MEDICINSK FORSKNING, priority 2018, dated 2024).

Each molecule was assayed against OGG1 (Homo sapiens (Human), UniProt O15527) (assay: In vitro OGG1 activity assay). Details: 800 pM OGG1 enzyme, 2 nM human APEX1, 10 nM 8-oxoA:C substrate.
Assay type: biochemical
Experimental: Method 1: In Vitro OGG1 Activity Assay OGG1 activity is assayed by measuring the increase in fluorescence from a duplex oligonucleotide containing an OGG1 substrate and a fluorophore in close proximity that are quenched by a quencher on the complementary strand. […] OGG1 activity releases the substrate base from DNA by cleaving the N-glycosidic bond between base and deoxyribose. The resulting apurinic site is cleaved by an excessive amount APEX1 activity which cause the duplex to melt, which in turn cause the fluorophore to become unquenched. Compounds to be tested are dissolved in DMSO and nano-dispensed directly into black 384-well plates, followed by transfer of enzyme and substrate solutions. […] The fluorescent signal is recorded in a plate reader equipped with suitable filters to register fluorescein fluorescence.

Chain of OGG1 (O15527 whole entry): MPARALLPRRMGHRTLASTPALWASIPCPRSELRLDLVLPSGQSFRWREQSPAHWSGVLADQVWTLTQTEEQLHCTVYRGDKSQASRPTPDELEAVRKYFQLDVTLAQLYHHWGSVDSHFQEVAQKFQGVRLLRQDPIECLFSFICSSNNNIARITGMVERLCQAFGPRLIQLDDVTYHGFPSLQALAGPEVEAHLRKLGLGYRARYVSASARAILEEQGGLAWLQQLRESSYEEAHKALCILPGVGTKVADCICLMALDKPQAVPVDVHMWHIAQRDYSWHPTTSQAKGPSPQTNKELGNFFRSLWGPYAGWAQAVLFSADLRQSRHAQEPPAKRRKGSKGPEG

Compound | IC50 [nM]
O=C(Nc1ccc(Cl)cc1)N1CCC(n2c(=O)[nH]c3cc(Cl)ccc32)CC1 [Example 1, 4-(5-Chloro-2-oxo-2,3-dihydro-1H-1,3-benzodiazol-1-yl)-N-(4-chlorophenyl) piperidine-1-carboxamide] | 2800
Cc1cccc2c1[nH]c(=O)n2C1CCN(C(=O)Nc2ccc(I)cc2)CC1 [Example 4, N-(4-iodophenyl)-4-(4-methyl-2-oxo-2,3-dihydro-1H-1,3-benzodiazol-1-yl)piperidine-1-carboxamide] | 660
O=C(Nc1ccc(I)cc1)N1CCC(n2c(=O)[nH]c3c(O)cccc32)CC1 [Example 6, 4-(4-Hydroxy-2-oxo-2,3-dihydro-1H-1,3-benzodiazol-1-yl)-N-(4-iodophenyl)piperidine-1-carboxamide] | 540
Cc1cccc2c1[nH]c(=O)n2C1CCN(C(=O)Nc2ccc(Cl)cc2)CC1 [Example 7, N-(4-chlorophenyl)-4-(4-methyl-2-oxo-2,3-dihydro-1H-1,3-benzodiazol-1-yl)piperidine-1-carboxamide] | 1080
COc1cccc2c1[nH]c(=O)n2C1CCN(C(=O)Nc2ccc(Cl)cc2)CC1 [Example 8, N-(4-chlorophenyl)-4-(4-methoxy-2-oxo-2,3-dihydro-1H-1,3-benzodiazol-1-yl)piperidine-1-carboxamide] | 1550
O=C(Nc1ccc(Cl)c(Cl)c1)N1CCC(n2c(=O)[nH]c3c(O)cccc32)CC1 [Example 9, N-(3,4-dichlorophenyl)-4-(4-hydroxy-2-oxo-2,3-dihydro-1H-1,3-benzodiazol-1-yl)piperidine-1-carboxamide] | 796
Cc1ccc2c(c1)[nH]c(=O)n2C1CCN(C(=O)Nc2ccc(I)cc2)CC1 [Example 11, N-(4-iodophenyl)-4-(5-methyl-2-oxo-2,3-dihydro-1H-1,3-benzodiazol-1-yl)piperidine-1-carboxamide] | 1780
O=C(Nc1ccc(I)c(Cl)c1)N1CCC(n2c(=O)[nH]c3cc(Cl)ccc32)CC1 [Example 17, 4-(5-Chloro-2-oxo-2,3-dihydro-1H-1,3-benzodiazol-1-yl)-N-(3-chloro-4-iodophenyl)piperidine-1-carboxamide] | 1420
CCOc1cccc2c1[nH]c(=O)n2C1CCN(C(=O)Nc2ccc(I)cc2)CC1 [Example 18, 4-(4-Ethoxy-2-oxo-2,3-dihydro-1H-1,3-benzodiazol-1-yl)-N-(4-iodophenyl)piperidine-1-carboxamide] | 1390
O=C(Nc1ccc(I)cc1)N1CCC(n2c(=O)[nH]c3c(-c4ccc[nH]4)cccc32)CC1 [Example 25, N-(4-iodophenyl)-4-[2-oxo-4-(1H-pyrrol-2-yl)-2,3-dihydro-1H-1,3-benzodiazol-1-yl]piperidine-1-carboxamide] | 765
Nc1cccc(-c2cccc3c2[nH]c(=O)n3C2CCN(C(=O)Nc3ccc(Cl)c(Cl)c3)CC2)c1 [Example 29, 4-[4-(3-Aminophenyl)-2-oxo-2,3-dihydro-1H-1,3-benzodiazol-1-yl]-N-(3,4-dichlorophenyl)piperidine-1-carboxamide] | 2060
O=C(Nc1ccc(I)cc1)N1CCC(n2c(=O)[nH]c3c(CCO)cccc32)CC1 [Example 30, 4-[4-(2-Hydroxyethyl)-2-oxo-2,3-dihydro-1H-1,3-benzodiazol-1-yl]-N-(4-iodophenyl)piperidine-1-carboxamide] | 1710
O=C(Nc1ccc(I)cc1)N1CCC(n2c(=O)[nH]c3c(C4CC4)cccc32)CC1 [Example 31, 4-(4-Cyclopropyl-2-oxo-2,3-dihydro-1H-1,3-benzodiazol-1-yl)-N-(4-iodophenyl)piperidine-1-carboxamide] | 1090
NCc1ccc(-c2cccc3c2[nH]c(=O)n3C2CCN(C(=O)Nc3ccc(Cl)c(Cl)c3)CC2)cc1 [Example 33, 4-{4-[4-(Aminomethyl)phenyl]-2-oxo-2,3-dihydro-1H-1,3-benzodiazol-1-yl}-N-(3,4-dichlorophenyl)piperidine-1-carboxamide] | 2530
O=C(Nc1ccc(I)cc1)N1CCCC(n2c(=O)[nH]c3c(Br)cccc32)CC1 (stereo not shown) [Example 34, 4-(4-Bromo-2-oxo-2,3-dihydro-1H-1,3-benzodiazol-1-yl)-N-(4-iodophenyl)azepane-1-carboxamide] | 502
O=C(O)c1ccc(-c2cccc3c2[nH]c(=O)n3C2CCN(C(=O)Nc3ccc(Cl)c(Cl)c3)CC2)cc1 [Example 35, 4-(1-{1-[(3,4-Dichlorophenyl)carbamoyl]piperidin-4-yl}-2-oxo-2,3-dihydro-1H-1,3-benzodiazol-4-yl)benzoic acid] | 1970
CN(C)CCOc1ccc(-c2cccc3c2[nH]c(=O)n3C2CCN(C(=O)Nc3ccc(Cl)c(Cl)c3)CC2)cc1 [Example 36, N-(3,4-dichlorophenyl)-4-(4-{4-[2-(dimethylamino)ethoxy]phenyl}-2-oxo-2,3-dihydro-1H-1,3-benzodiazol-1-yl)piperidine-1-carboxamide] | 3650
O=C(Nc1ccc(Cl)c(Cl)c1)N1CCC(n2c(=O)[nH]c3c(-c4ccc(C(=O)C(F)(F)F)cc4)cccc32)CC1 [Example 40, N-(3,4-dichlorophenyl)-4-{2-oxo-4-[4-(2,2,2-trifluoroacetyl)phenyl]-2,3-dihydro-1H-1,3-benzodiazol-1-yl}piperidine-1-carboxamide] | 6320

Other lines, results leading:

IC50 [nM] | Compound
2410 | CCc1ccc(NC(=O)N2CCC(n3c(=O)[nH]c4c(Br)cccc43)CC2)cc1 [Example 42, 4-(4-Bromo-2-oxo-2,3-dihydro-1H-1,3-benzodiazol-1-yl)-N-(4-ethylphenyl)piperidine-1-carboxamide]
408 | Cc1cc(NC(=O)N2CCC(n3c(=O)[nH]c4c(-c5ccc(CO)nc5)cccc43)CC2)ccc1I [Example 81, 4-{4-[6-(Hydroxymethyl)pyridin-3-yl]-2-oxo-2,3-dihydro-1H-1,3-benzodiazol-1-yl}-N-(4-iodo-3-methylphenyl)piperidine-1-carboxamide]
1760 | CCN(CC)C(=O)c1cnn(-c2cccc3c2[nH]c(=O)n3C2CCN(C(=O)Nc3ccc(I)cc3)CC2)c1 [Example 88, 4-{4-[4-(Diethylcarbamoyl)-1H-pyrazol-1-yl]-2-oxo-2,3-dihydro-1H-1,3-benzodiazol-1-yl}-N-(4-iodophenyl)piperidine-1-carboxamide]
218 | O=C(NCC(O)CO)c1cnn(-c2cccc3c2[nH]c(=O)n3C2CCN(C(=O)Nc3ccc(I)cc3)CC2)c1 (stereo not shown) [Example 90, 4-(4-{4-[(2,3-Dihydroxypropyl)carbamoyl]-1H-pyrazol-1-yl}-2-oxo-2,3-dihydro-1H-1,3-benzodiazol-1-yl)-N-(4-iodophenyl)piperidine-1-carboxamide]
1810 | COc1cc(NC(=O)N2CCC(n3c(=O)[nH]c4c(-c5cccnc5)cccc43)CC2)ccc1C [Example 95, N-(3-methoxy-4-methylphenyl)-4-[2-oxo-4-(pyridin-3-yl)-2,3-dihydro-1H-1,3-benzodiazol-1-yl]piperidine-1-carboxamide]
1720 | COc1cc(NC(=O)N2CCC(n3c(=O)[nH]c4c(-c5cncc(N)c5)cccc43)CC2)ccc1C [Example 97, 4-[4-(5-Aminopyridin-3-yl)-2-oxo-2,3-dihydro-1H-1,3-benzodiazol-1-yl]-N-(3-methoxy-4-methylphenyl)piperidine-1-carboxamide]
2620 | COc1ccc(NC(=O)N2CCC(n3c(=O)[nH]c4c(-c5cccnc5)cccc43)CC2)cc1Cl [Example 98, N-(3-chloro-4-methoxyphenyl)-4-[2-oxo-4-(pyridin-3-yl)-2,3-dihydro-1H-1,3-benzodiazol-1-yl]piperidine-1-carboxamide]
1160 | COc1ccc(NC(=O)N2CCC(n3c(=O)[nH]c4c(-c5ccc(N)nc5)cccc43)CC2)cc1Cl [Example 99, 4-[4-(6-Aminopyridin-3-yl)-2-oxo-2,3-dihydro-1H-1,3-benzodiazol-1-yl]-N-(3-chloro-4-methoxyphenyl)piperidine-1-carboxamide]
2260 | COc1ccc(NC(=O)N2CCC(n3c(=O)[nH]c4c(-c5cnc6[nH]ncc6c5)cccc43)CC2)cc1Cl [Example 101, N-(3-chloro-4-methoxyphenyl)-4-(2-oxo-4-{1H-pyrazolo[3,4-b]pyridin-5-yl}-2,3-dihydro-1H-1,3-benzodiazol-1-yl)piperidine-1-carboxamide]
2770 | COc1cc(NC(=O)N2CCC(n3c(=O)[nH]c4c(-c5cccnc5)cccc43)CC2)ccc1Cl [Example 102, N-(4-chloro-3-methoxyphenyl)-4-[2-oxo-4-(pyridin-3-yl)-2,3-dihydro-1H-1,3-benzodiazol-1-yl]piperidine-1-carboxamide]
2280 | COc1cc(NC(=O)N2CCC(n3c(=O)[nH]c4c(-c5cncc(N)c5)cccc43)CC2)ccc1Cl [Example 104, 4-[4-(5-Aminopyridin-3-yl)-2-oxo-2,3-dihydro-1H-1,3-benzodiazol-1-yl]-N-(4-chloro-3-methoxyphenyl)piperidine-1-carboxamide]
2940 | COc1ccc(-c2cccc3c2[nH]c(=O)n3C2CCN(C(=O)Nc3ccc(Cl)c(OC)c3)CC2)cn1 [Example 105, N-(4-chloro-3-methoxyphenyl)-4-[4-(6-methoxypyridin-3-yl)-2-oxo-2,3-dihydro-1H-1,3-benzodiazol-1-yl]piperidine-1-carboxamide]
1750 | COc1ccc(NC(=O)N2CCC(n3c(=O)[nH]c4c(N(C)CCN(C)C)cccc43)CC2)cc1Cl [Example 106, N-(3-chloro-4-methoxyphenyl)-4-(4-{[2-(dimethylamino)ethyl](methyl)amino}-2-oxo-2,3-dihydro-1H-1,3-benzodiazol-1-yl)piperidine-1-carboxamide]
